According to ChEMBL document CHEMBL3044741, “Synthesis of novel biologically active methylene derivatives of sydnones” (Med Chem Res, 2013):
Converted amounts (≈) assume the structure as drawn.

Columns and labels:
MDA-MB-231 = assay: Cytotoxicity against human MDA-MB-231 assessed as cell growth at high concentration; assay type: functional
DU-145 = assay: Cytotoxicity against human DU145 assessed as cell growth at high concentration; assay type: functional
PC-3 = assay: Cytotoxicity against human PC3 assessed as cell growth at high concentration; assay type: functional
UO-31 = assay: Cytotoxicity against human UO31 assessed as cell growth at high concentration; assay type: functional
TK-10 = assay: Cytotoxicity against human TK10 assessed as cell growth at high concentration; assay type: functional
CAKI-1 = assay: Cytotoxicity against human Caki1 assessed as cell growth at high concentration; assay type: functional
UACC-257 = assay: Cytotoxicity against human UACC257 assessed as cell growth at high concentration; assay type: functional
UACC-62 = assay: Cytotoxicity against human UACC62 assessed as cell growth at high concentration; assay type: functional
SK-MEL-5 = assay: Cytotoxicity against human SK-MEL-5 assessed as cell growth at high concentration; assay type: functional
SK-MEL-2 = assay: Cytotoxicity against human SK-MEL-2 assessed as cell growth at high concentration; assay type: functional
MDA-MB-435 = assay: Cytotoxicity against human MDA-MB-435 assessed as cell growth at high concentration; assay type: functional
M14 = assay: Cytotoxicity against human M14 assessed as cell growth at high concentration; assay type: functional
SNB-19 = assay: Cytotoxicity against human SNB19 assessed as cell growth at high concentration; assay type: functional
NCI-H460 = assay: Cytotoxicity against human NCI-H460 assessed as cell growth at high concentration; assay type: functional
CCRF-CEM = assay: Cytotoxicity against human CCRF-CEM assessed as cell growth at high concentration; assay type: functional
[1] = Selectivity index, ratio of CC50 for human MT4 cells to IC50 for HIV2 ROD; assay type: functional
[2] = Selectivity index, ratio of CC50 for human MT4 cells to IC50 for HIV1 3B; assay type: functional
SF-295 = assay: Cytotoxicity against human SF295 assessed as cell growth at high concentration; assay type: functional
HCT-116 = assay: Cytotoxicity against human HCT116 assessed as cell growth at high concentration; assay type: functional
[3] = system: Human immunodeficiency virus 1; assay: Antiviral activity against HIV1 3B infected in MT4 cells assessed as inhibition of virus-induced cytopathogenicity by MTT assay; assay type: functional, organism-based; conditions: Human immunodeficiency virus 1, 3B
Candida albicans = assay: Antifungal activity against Candida albicans MTCC 227; assay type: functional
Pseudomonas aeruginosa = assay: Antibacterial activity against Pseudomonas aeruginosa MTCC 424 after 24 hrs by broth dilution method; assay type: functional; conditions: MTCC 424, 24 h
Streptococcus pyogenes = assay: Antibacterial activity against Streptococcus pyogenes MTCC 442 after 24 hrs by broth dilution method; assay type: functional; conditions: MTCC 442, 24 h
Staphylococcus aureus = assay: Antibacterial activity against Staphylococcus aureus MTCC 96 after 24 hrs by broth dilution method; assay type: functional; conditions: MTCC 96, 24 h
HL-60(TB) = assay: Cytotoxicity against human HL-60(TB) assessed as cell growth at high concentration; assay type: functional

Row | SMILES | Activity (MDA-MB-231) | Activity (DU-145) | Activity (PC-3) | Activity (UO-31) | Activity (TK-10) | Activity (CAKI-1) | Activity (UACC-257) | Activity (UACC-62) | Activity (SK-MEL-5) | Activity (SK-MEL-2) | Activity (MDA-MB-435) | Activity (M14) | Activity (SNB-19) | Activity (NCI-H460) | Activity (CCRF-CEM) | Ratio CC50/IC50 [1] | Ratio CC50/IC50 [2] | Activity (SF-295) | Activity (HCT-116) | IC50 [3] | also measured
1 | Cc1ccc(-[n+]2noc([O-])c2CN2CCN(c3cccc(Cl)c3)CC2)cc1 | 75.33% | 95.5% | 70.26% | 61.64% | 119.81% | 86.38% | 93.49% | 82.63% | 95.3% | 108.26% | 100.2% | 107.94% | 99.85% | 89.39% | 72.82% | <1 | <1 | 78.19% | 82.24% | > 27.4 µg/mL | MIC (Candida albicans): 200 µg/mL (≈ 520 µM); MIC (Pseudomonas aeruginosa): 150 µg/mL (≈ 390 µM); MIC (Streptococcus pyogenes): 125 µg/mL (≈ 325 µM); MIC (Staphylococcus aureus): 62.5 µg/mL (≈ 162 µM)
2 | Cc1ccc(-[n+]2noc([O-])c2CN2CCNCC2)cc1 | 86.16% | 102.16% | 88.56% | 70.1% | 102.68% | 91.35% | 96.41% | 93.66% | 100.25% | 114.56% | 103.5% | 105.86% | 103.47% | 95.72% | 102.79% | <1 | <1 | 98.69% | 108.38% | > 32.6 µg/mL | Activity (HL-60(TB)): 118.68%; MIC (Candida albicans): 200 µg/mL (≈ 729 µM); MIC (Pseudomonas aeruginosa): 50 µg/mL (≈ 182 µM); MIC (Streptococcus pyogenes): 500 µg/mL (≈ 1820 µM); MIC (Staphylococcus aureus): 200 µg/mL (≈ 729 µM)
